How the values were obtained:
[1] = In vivo imaging biodistribution (IVIS Lumina) in mice with λ-carrageenan-induced paw inflammation; design: species or system Swiss mice; conditions: i.v. injection, λ-carrageenan administered mice
Protocol: In parallel, control non-inflamed shaved mice (injected with 20 μL saline into the right hind paw, instead of λ-carrageenan), received also injection of fluorescent LENK-SQ NPs. The biodistribution of the NPs was recorded at 0.5, 2, 4, 6 and 24 h after excitation at 640 nm and emission in the 695-775 nm filter respectively, using IVIS Lumina LT series III system (Caliper, Life science). During imaging, the mice were kept on the imaging stage under anesthesia with 2% isoflurane gas in oxygen flow (1 L/min) and were imaged in ventral position. Images and measures of fluorescence signals were acquired and analyzed with Living Imaging®. To measure photon radiance, regions of interest (ROI, threshold of 35%) were selected on the paw of the mice and average radiant efficiency values were used for quantification. Threshold of ROI for the inflamed paw was then pasted on the non-inflamed paw to compare the radiance with the same region.

[2] = system: thermal hyperalgesia in λ-carrageenan-treated rats; assay: Hargreaves test (thermal nociceptive test) in λ-carrageenan-induced inflammatory pain; format: in vivo, Sprague-Dawley rats
[3] = 37° C.
Protocol: In the case of LENK-SQ-Diox NPs, diluted serum (30% in 5% dextrose solution) was used for the release study. […] To quantify the residual LENK-SQ bioconjugate and the released LENK, the resulting supernatants (150 μL) were evaporated to dryness at 40° C. under nitrogen flow, and then solubilized in 150 μL of Milli-Q water.

[4] = Dynamic light scattering (DLS) measurement of LENK-SQ NPs: size, zeta potential; format: physicochemical; conditions: in 0.1 mM KCl
Protocol: The mean particle size, polydispersity index (PDI) and zeta potential were primarily evaluated by DLS (Nano ZS, Malvern; 173° scattering angle at 25° C.).
The measurements were performed in triplicate following appropriate dilution of the nanoparticles in water (DLS) or in 0.1 mM KCl (zeta potential).

[5] = system: central or peripheral opioid receptors; assay: Opioid receptor blockade with naloxone or naloxone methiodide before agonist, Hargreaves test; format: in vivo, Sprague-Dawley rats; conditions: for reduction of AUC value by NaI pre-treatment compared with agonist alone: NaI (naloxone, brain-permeant) 0.5 mg/kg s.c. 15 min before agonist; for reduction of AUC value by NaI-M pre-treatment compared with agonist alone: NaI-M (naloxone methiodide, brain-impermeant) 0.5 mg/kg s.c. 15 min before agonist
[6] = diluted mouse serum (30% in 5% dextrose solution)

In the case of `CCCCCCCCCCCCCCCCCCN1/C(=C/C=C/C=C/C2=[N+](CCCCCCCCCCCCCCCCCC)c3ccccc3C2(C)C)C(C)(C)c2ccccc21.[O-][Cl+3]([O-])([O-])[O-]` [DiD solution], the “accumulation of fluorescence in the inflamed paw” value [1] is reported as “no significant accumulation of fluorescence”.

With `CN1CC[C@]23c4c5ccc(O)c4O[C@H]2[C@@H](O)C=C[C@H]3[C@H]1C5` [morphine] the “paw withdrawal latency (PWL)” value ([2]; 10 min post-injection, morphine 1 mg/kg, 3 h after λ-carrageenan, rats) was 12.87 ± 1.38 s, the “time post-administration at which no longer significant anti-hyperalgesic effect was observed” value ([2]; morphine 1 mg/kg, rats) was 100 min and the “maximal PWL values compared with basal PWL of control naïve rats” value ([2]; λ-carrageenan-treated rats) was “twice as high as those found in control naïve rats”.

For `CC(C)=CCC/C(C)=C/CC/C(C)=C/CC/C=C(\C)CC/C=C(\C)CCC(=O)NC(Cc1ccc(O)cc1)C(=O)NCC(=O)NCC(=O)NC(Cc1ccccc1)C(=O)NC(CC(C)C)C(=O)O` (centres unmarked) [LENK-SQ-Am, Leu-enkephalin-squalene Bioconjugate with Amide Spacer], the “time stable in serum without significant decrease of bioconjugate” value ([3]; mouse serum) was ≥ 48 h, the “zeta potential (sign of charge) of NPs” value [4] was “negative” and the “reduction of AUC value by NaI pre-treatment compared with agonist alone” value [5] was 73%. The “reduction of AUC value by NaI-M pre-treatment compared with agonist alone” value [5] was 96%.

In the case of `CC(C)=CCC/C(C)=C/CC/C(C)=C/CC/C=C(\C)CC/C=C(\C)CCCOC(=O)COCC(=O)NC(Cc1ccc(O)cc1)C(=O)NCC(=O)NCC(=O)NC(Cc1ccccc1)C(=O)NC(CC(C)C)C(=O)O` (centres unmarked) [LENK-SQ-Dig, Leu-enkephalin-squalene Bioconjugate with diglycolic Spacer], the “release of free LENK peptide” value ([3]; mouse serum) is reported as “no presence of free peptide was detected”, the “time of complete disappearance of the bioconjugate” value ([3]; mouse serum) is reported as 2 h and the “zeta potential (sign of charge) of NPs” value [4] is reported as “negative”. The “time of decline of PWL down to baseline” value ([2]; 20 mg/kg i.v., rats) was 220 min.

For `CC(C)=CCC/C(C)=C/CC/C(C)=C/CC/C=C(\C)CC/C=C(\C)CCC(=O)OCOC(=O)C(CC(C)C)NC(=O)C(Cc1ccccc1)NC(=O)CNC(=O)CNC(=O)C(N)Cc1ccc(O)cc1` (centres unmarked) [LENK-SQ-Diox, Leu-Enkephalin-Squalene Bioconjugate with Dioxycarbonyl Spacer], the “release of the free LENK peptide” value [3, 6] was “progressively released the free LENK peptide”, the “time till which the concentration of the bioconjugate decreased gradually” value [3, 6] was 7 h and the “zeta potential (sign of charge) of NPs” value [4] was “net positive charge”. The “reduction of AUC value by NaI pre-treatment compared with agonist alone” value [5] was 66% and the “reduction of AUC value by NaI-M pre-treatment compared with agonist alone” value [5] was 81%.
